The source of these data is patent publication US20050239842A1, “Methods of using and compositions comprising immunomodulatory compounds for the treatment and management of pulmonary hypertension” (priority 2004, published 2005).

For data set [1] the following is noted: cited from earlier work.
The subject of data set [2] is patients with PH. The data set is described as follows: Expanded clinical study in PH patients, WHO functional class III or IV, 16 weeks. In kind it is in vivo, human. As for the experimental part: On the basis of the results of the above study 2, the clinical study is expanded with additional 213 PH patients for at least 16 weeks. The study is conducted with patients with PH, WHO functional class III or IV. Two hundred thirteen patients are randomized to receive either 5 mg bid or 10 mg bid of 3-(4-amino-1-oxo-1,3-dihydro-isoindol-2-yl)-piperidine-2,6-dione or placebo in a 1:1:1 ratio. The primary endpoint, a 6-minute walk distance, is evaluated at 16 weeks. The treated patients walk 36.4 meters further at 16 weeks compared to a 7.8 meter reduction in walk distance in the placebo group, for a treatment effect of 44.2 meters. Clinical worsening, defined by death, premature withdrawal from study, hospitalization for worsening of PH or institution of epoprostenol, occur in 37% of placebo-treated patients, compared with 11% of the patients treated with the compound of the invention.

Data set [3] relates to production of various cytokines. Kind of data set: In vitro pharmacological activity profile compared with thalidomide. Particulars: in vitro studies. In kind it is cell-based. From the text: The pharmacological properties of 3-(4-amino-1 -oxo-1,3-dihydro-isoindol-2-yl)-piperidine-2,6-dione, including activity comparisons with thalidomide, have been characterized in in vitro studies. Studies examined the effects of 3-(4-amino-1-oxo-1,3-dihydro-isoindol-2-yl)-piperidine-2,6-dione or thalidomide on the production of various cytokines.
The pharmacological effects of 3-(4-amino-1-oxo-1,3-dihydro-isoindol-2-yl)-piperidine-2,6-dione derive from its action as an inhibitor of cellular response to receptor-initiated trophic signals (e.g., IGF-1, VEGF, […]), and other activities. As a result, 3-(4-amino-1-oxo-1,3-dihydro-isoindol-2-yl)-piperidine-2,6-dione suppresses the generation of inflammatory cytokines, down-regulates adhesion molecules and apoptosis inhibitory proteins (e.g., cFLIP, clAP), promotes sensitivity to death-receptor initiated programmed cell death, and suppresses angiogenic response.

Data set [4] concerns patients with PH. Kind of data set: Clinical Study 2 in PH patients, 12 weeks, placebo controlled. In kind it is in vivo, human. As for the experimental part:
In one embodiment of the invention, 3-(4-amino-1-oxo-1,3-dihydro-isoindol-2-yl)-piperidine-2,6-dione is administered in a single or divided daily doses in an amount of from about 1 to about 100 mg/day. In another embodiment of the invention, 3-(4-amino-1-oxo-1,3-dihydro-isoindol-2-yl)-piperidine-2,6-dione is administered from about 1 to about 20 mg/day individually. The compound is administered to patients with PH for 12 weeks, who are subsequently evaluated for a decline in walk distance, dyspnea score, functional class, pulmonary hemodynamic response. The first study enrolls 32 patients with PH. Patients are all in modified New York Heart Association functional class III at the onset of the study. Patents are maximally treated and are stable on conventional therapy, including calcium channel antagonists and diuretics. Two thirds of patients receive 5 mg of 3-(4-amino-1-oxo-1,3-dihydro-isoindol-2-yl)-piperidine-2,6-dione for four weeks followed by 10 mg of the compound for eight weeks. One third of patients receive placebo. The primary efficacy endpoint is a 6-minute walk distance. Patients receiving the compound of the invention walk an average of 70 meters farther after 12 weeks while placebo patients have a decline in walk distance. In addition, the treated patients have improvements in dyspnea score and functional class compared with placebo patients. Pulmonary hemodynamic measurements reveal decreases in pulmonary arterial pressure and pulmonary vascular resistance, and increase in cardiac output after 12 weeks of the treatment, compared with worsening of pulmonary hemodynamics in placebo patients. All these changes in treated patients are highly significant compared with placebo.

Consider `Nc1cccc2c1CN(C1CCC(=O)NC1=O)C2=O` (stereo not shown) [Form E, 3-(4-amino-1-oxo-1,3 dihydro-isoindol-2-yl)-piperidene-2,6-dione], for which, in data set [1], the “stability among forms in aqueous solvent systems” value is “most stable form”.

Regarding `Nc1cccc2c1CN(C1CCC(=O)NC1=O)C2=O` (stereo not shown) [3-(4-amino-1-oxo-1,3-dihydro-isoindol-2-yl)-piperidine-2,6-dione], the “treatment effect on 6-minute walk distance versus placebo” value in data set [2] (at 16 weeks) stood at 44.2 meters. Further, the “6-minute walk distance, increase” value in data set [2] (at 16 weeks, 5 mg bid or 10 mg bid) is reported as 36.4 meters. Further, in data set [2] (treated patients), the “clinical worsening (death, premature withdrawal, hospitalization for worsening of PH or institution of epoprostenol), share of patients” value came to 11%. In addition, the functional class result in data set [2] (treated versus placebo patients) is “improved significantly more”. Moreover, the “potency relative to thalidomide” value in data set [3] is recorded as 50 to 2,000 times. The “dyspnea score and functional class” value in data set [4] (12 weeks, compared with placebo patients) is listed as “improvements”. In data set [4] (after 12 weeks of treatment), the cardiac output result is recorded as “increase”; the “pulmonary arterial pressure and pulmonary vascular resistance” value is “decreases”. In data set [4] (after 12 weeks, 5 mg for four weeks then 10 mg for eight weeks), the “6-minute walk distance, average increase” value was 70 meters.
